Active and inactive are the calls of the source. How the calls were made is not given here.
Tested on: rodent carcinogenicity bioassays, tumor incidence
Assay: CCRIS carcinogenicity studies
Procedure, shortened: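 NCI-built, expert-reviewed records of carcinogenicity and related test outcomes (mutagenicity, tumor promotion/inhibition) compiled from published and report sources, historical span 1985-2011, not updated.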

SMILES: CC(I)C1OCC(CO)O1 (stereo not drawn)
- carcinogen call (Species: MOUSE, Strain/Sex: B6C3F1/FEMALE, Route: GAVAGE, Dose: 0, 62, 125 MG/KG IN WATER 5 D/WK FOR 103 WK (STUDY DURATION: 106 WK), Dose: 0, 62, 125 MG/KG IN WATER 5 D/WK FOR 103 WK (STUDY DURATION: 106 WK), Tumor Site: Type of Lesion: FORESTOMACH: SQUAMOUS CELL PAPILLOMA, ANTERIOR PITUTARY GLAND: ADENOMA, HARDERIAN GLAND: ADENOMA, ADENOMA OR CARCINOMA, Tumor Site: Type of Lesion: FORESTOMACH: SQUAMOUS CELL PAPILLOMA, ANTERIOR PITUTARY GLAND: ADENOMA, HARDERIAN GLAND: ADENOMA, ADENOMA OR CARCINOMA): active; positive
- carcinogen call (Species: MOUSE, Strain/Sex: B6C3F1/MALE, Route: GAVAGE, Dose: 0, 125, 250 MG/KG IN WATER 5 D/WK FOR 103 WK (STUDY DURATION: 106 WK), Dose: 0, 125, 250 MG/KG IN WATER 5 D/WK FOR 103 WK (STUDY DURATION: 106 WK)): inactive; negative
- carcinogen call (Species: RAT, Strain/Sex: F344/FEMALE, Route: GAVAGE, Dose: 0, 62, 125 MG/KG IN WATER 5 D/WK FOR 103 WK (STUDY DURATION: 105 WK), Dose: 0, 62, 125 MG/KG IN WATER 5 D/WK FOR 103 WK (STUDY DURATION: 105 WK)): inactive; negative
- carcinogen call (Species: RAT, Strain/Sex: F344/MALE, Route: GAVAGE, Dose: 0, 125, 250 MG/KG IN WATER 5 D/WK FOR 103 WK (STUDY DURATION: 105 WK), Dose: 0, 125, 250 MG/KG IN WATER 5 D/WK FOR 103 WK (STUDY DURATION: 105 WK), Tumor Site: Type of Lesion: HEMATOPOIETIC SYSTEM: MONONUCLEAR CELL LEUKEMIA, THYROID GLAND: FOLLICULAR CELL CARCINOMA): active; positive

SMILES: O=NN(CCCC(F)(F)F)CCCC(F)(F)F
- carcinogen call (Species: RAT, Strain/Sex: SPRAGUE-DAWLEY/MALE,FEMALE, Route: GAVAGE, Dose: 1.5, 7.5% IN VEGETABLE OIL 2/WK FOR UP TO 32 WK, Tumor Site: Type of Lesion: LIVER: HEPATOCELLULAR CARCINOMA, LUNG: SQUAMOUS CELL CARCINOMA, ADENOCARCINOMA): active; positive

SMILES: CN(C)C(=O)Nc1ccc(Cl)c(Cl)c1
- carcinogen call (Species: MOUSE, Strain/Sex: SWISS/FEMALE, Route: DERMAL, Dose: 0, 250 MG/KG IN 100 µL DMSO TO INTERSCAPULAR REGION 3/WK FOR 3 WK FOLLOWED 1 WK LATER BY 100 µL ACETONE 3/WK FOR DURATIO): inactive; negative
- carcinogen call (Species: Mouse, Strain/Sex: Bor strain NMRI SPF HAN/Female (60/Group), Route: Oral, Dose: 0, 25, 250, 2500 ppm 98.7% diuron in diet for 24 mo, study duration 24 mo, Dose: 0, 25, 250, 2500 ppm 98.7% diuron in diet for 24 mo, study duration 24 mo, Tumor Site: Type of Lesion: Mammary gland: Adenocarcinoma (highest dose only)): active; positive. (ca department of pesticide regulation reviewer evaluates as a possibl
- carcinogen call (Species: Mouse, Strain/Sex: Bor strain NMRI SPF HAN/Male (60/Group), Route: Oral, Dose: 0, 25, 250, 2500 ppm 98.7% diuron in diet for 24 mo, study duration 24 mo, Dose: 0, 25, 250, 2500 ppm 98.7% diuron in diet for 24 mo, study duration 24 mo): inactive; negative
- carcinogen call (Species: Rat, Strain/Sex: Wistar/Female (50/Group), Route: Oral, Dose: 0, 25, 250, 2500 ppm 98.7% diuron in diet for 2 yr, study duration 2 yr, Dose: 0, 25, 250, 2500 ppm 98.7% diuron in diet for 2 yr, study duration 2 yr, Tumor Site: Type of Lesion: Urinary bladder: Transitional epithelial cell carcinoma (highest dose only)): active; positive. (ca department of pesticide regulation reviewer evaluates as a possibl
- carcinogen call (Species: Rat, Strain/Sex: Wistar/Male (50/Group), Route: Oral, Dose: 0, 25, 250, 2500 ppm 98.7% diuron in diet for 2 yr, study duration 2 yr, Dose: 0, 25, 250, 2500 ppm 98.7% diuron in diet for 2 yr, study duration 2 yr, Tumor Site: Type of Lesion: Urinary bladder: Transitional epithelial cell carcinoma (highest dose only). Kidney: Epithelial cell tumors in renal pel): active; positive. (ca department of pesticide regulation reviewer evaluates as a possibl

SMILES: CCN=[N+]([O-])CC
- carcinogen call (Species: RAT, Route: ORAL, Tumor Site: Type of Lesion: LIVER: HEMANGIOENDOTHELIOMA): active; positive
- carcinogen call (Species: RAT, Route: SUBCUTANEOUS, Tumor Site: Type of Lesion: MAMMARY GLAND, BRAIN (OLFACTORY BULB): NEUROBLASTOMA, BRAIN: GLIOMA HEMATOPOIETIC SYSTEM (LEUKEMIA), Tumor Site: Type of Lesion: MAMMARY GLAND, BRAIN (OLFACTORY BULB): NEUROBLASTOMA, BRAIN: GLIOMA HEMATOPOIETIC SYSTEM (LEUKEMIA)): active; positive
- carcinogen call (Species: RAT, Strain/Sex: F344/MALE, Route: ORAL, Dose: 0, 14, 55 MG/ML IN A NEUTRAL DEIONIZED DRINKING WATER SOLUTION 5 D/WK FOR 30 WK (TOTAL DOSE 42; 132 MG) (STUDY DURATION:, Dose: 0, 14, 55 MG/ML IN A NEUTRAL DEIONIZED DRINKING WATER SOLUTION 5 D/WK FOR 30 WK (TOTAL DOSE 42; 132 MG) (STUDY DURATION:, Tumor Site: Type of Lesion: LIVER: CARCINOMA, HEMANGIOSARCOMA, ESOPHAGUS: TUMOR, NASAL CAVITY: SQUAMOUS CELL CARCINOMA, ADENOCARCINOMA, Tumor Site: Type of Lesion: LIVER: CARCINOMA, HEMANGIOSARCOMA, ESOPHAGUS: TUMOR, NASAL CAVITY: SQUAMOUS CELL CARCINOMA, ADENOCARCINOMA): active; positive

SMILES: Nc1cc(Cl)nc(C(=O)O)c1Cl
- carcinogen call (Species: Mouse, Strain/Sex: CD-1/Female, Route: Oral, Dose: 0, 5, 250, 1000 mg/kg/d in feed for 18 mo, Dose: 0, 5, 250, 1000 mg/kg/d in feed for 18 mo): inactive; negative; purity was 94.5%
- carcinogen call (Species: Mouse, Strain/Sex: CD-1/Male, Route: Oral, Dose: 0, 5, 250, 1000 mg/kg/d in feed for 18 mo, Dose: 0, 5, 250, 1000 mg/kg/d in feed for 18 mo): inactive; negative; purity was 94.5%
- carcinogen call (Species: Rat, Strain/Sex: F344/Female, Route: Oral, Dose: 0, 5, 50, 500, 1000 mg/kg/d in feed for 24 mo, Dose: 0, 5, 50, 500, 1000 mg/kg/d in feed for 24 mo): inactive; negative; purity was 94.5%
- carcinogen call (Species: Rat, Strain/Sex: F344/Male, Route: Oral, Dose: 0, 5, 50, 500, 1000 mg/kg/d in feed for 24 mo, Dose: 0, 5, 50, 500, 1000 mg/kg/d in feed for 24 mo): inactive; negative; purity was 94.5%

SMILES: Cc1ccc([N+](=O)[O-])cc1N
- carcinogen call (Species: MOUSE, Strain/Sex: B6C3F1/FEMALE, Route: ORAL, Dose: 0, 0.12, 0.23% OF DIET, TWA, Dose: 0, 0.12, 0.23% OF DIET, TWA, Tumor Site: Type of Lesion: LIVER: HEPATOCELLULAR CARCINOMA, BLOOD VESSELS: HEMANGIOSARCOMA): active; positive
- carcinogen call (Species: MOUSE, Strain/Sex: B6C3F1/MALE, Route: ORAL, Dose: 0, 0.12, 0.23% OF DIET, TWA, Dose: 0, 0.12, 0.23% OF DIET, TWA, Tumor Site: Type of Lesion: LIVER: HEPATOCELLULAR CARCINOMA, BLOOD VESSELS: HEMANGIOSARCOMA OR HEMANGIOMA): active; positive
- carcinogen call (Species: RAT, Strain/Sex: F344/FEMALE, Route: ORAL, Dose: 0, 0.005, 0.01% OF DIET, TWA, Dose: 0, 0.005, 0.01% OF DIET, TWA): inactive; negative
- carcinogen call (Species: RAT, Strain/Sex: F344/MALE, Route: ORAL, Dose: 0, 0.005, 0.01% OF DIET, TWA, Dose: 0, 0.005, 0.01% OF DIET, TWA): inactive; negative

SMILES: Oc1ccc(O)c(-c2ccccc2)c1
- carcinogen call (Species: MOUSE, Strain/Sex: CD-1/FEMALE, Route: DERMAL, Dose: 0, 10 MG IN DMSO 5 D/WK FOR 40 WK (STUDY DURATION: 40 WK)): inactive; negative
- carcinogen call (Species: RAT, Strain/Sex: F344/FEMALE, Route: INTRAVESICULAR, Dose: 0, 1% IN 0.2 ML SALINE 2/WK FOR 5 WK (STUDY DURATION: 36 WK)): inactive; negative
